Our source for the IC50 values is patent US10954219B2, “1,3-benzodioxole derivative” (DAIICHI SANKYO COMPANY, LIMITED, priority 2014, dated 2021).

Assay [1] deals with Intracellular H3K27me3 in HCT116 cells. As to the kind of experiment: Intracellular H3K27me3 inhibitory activity evaluation. It counts as cell-based. As to conditions: Homo sapiens, HCT-116, 72 h, 3 days, AlphaLISA, read-out: Test Example 3 H3K27me3 inhibition (HCT116) IC50.
The target in a further assay is PRC2-EZH1 (WT EZH1) (Homo sapiens, UniProt Q92800). Briefly: EZH1 methyltransferase inhibitory activity evaluation.
Sequence of PRC2-EZH1 (WT EZH1) (Q92800 whole entry): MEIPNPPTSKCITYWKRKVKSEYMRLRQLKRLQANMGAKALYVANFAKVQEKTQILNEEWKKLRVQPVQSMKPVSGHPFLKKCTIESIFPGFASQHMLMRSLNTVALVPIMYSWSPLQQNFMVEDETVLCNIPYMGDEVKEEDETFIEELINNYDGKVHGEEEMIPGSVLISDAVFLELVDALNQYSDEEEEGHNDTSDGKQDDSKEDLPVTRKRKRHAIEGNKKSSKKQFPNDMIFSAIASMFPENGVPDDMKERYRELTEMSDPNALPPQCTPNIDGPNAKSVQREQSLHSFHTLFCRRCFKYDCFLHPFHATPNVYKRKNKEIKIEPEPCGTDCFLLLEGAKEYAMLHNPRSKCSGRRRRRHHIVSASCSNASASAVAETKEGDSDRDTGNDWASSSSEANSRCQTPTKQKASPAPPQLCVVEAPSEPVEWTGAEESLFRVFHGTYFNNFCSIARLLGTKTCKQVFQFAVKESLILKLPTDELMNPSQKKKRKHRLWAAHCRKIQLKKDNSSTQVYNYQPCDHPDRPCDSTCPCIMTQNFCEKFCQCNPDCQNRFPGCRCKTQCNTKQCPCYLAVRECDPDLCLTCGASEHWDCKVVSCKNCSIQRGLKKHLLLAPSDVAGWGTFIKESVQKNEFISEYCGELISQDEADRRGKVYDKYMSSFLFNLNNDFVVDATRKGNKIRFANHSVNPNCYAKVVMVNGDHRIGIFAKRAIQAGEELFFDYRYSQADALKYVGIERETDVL
Sequence of PRC2-EZH1 (WT EZH1) (O75530 whole entry partner): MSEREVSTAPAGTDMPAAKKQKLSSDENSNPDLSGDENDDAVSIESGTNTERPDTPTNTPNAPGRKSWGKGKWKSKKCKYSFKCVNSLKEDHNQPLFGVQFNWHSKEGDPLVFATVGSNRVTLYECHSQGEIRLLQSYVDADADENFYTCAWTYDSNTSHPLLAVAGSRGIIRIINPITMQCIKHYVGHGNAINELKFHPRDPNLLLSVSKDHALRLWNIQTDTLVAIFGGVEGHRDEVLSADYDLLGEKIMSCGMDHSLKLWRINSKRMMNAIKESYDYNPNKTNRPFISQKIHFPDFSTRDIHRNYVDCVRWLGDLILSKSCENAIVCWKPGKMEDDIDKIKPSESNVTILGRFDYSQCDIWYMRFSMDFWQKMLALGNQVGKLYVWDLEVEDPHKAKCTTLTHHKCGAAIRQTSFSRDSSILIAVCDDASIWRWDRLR
Sequence of PRC2-EZH1 (WT EZH1) (Q15022 whole entry partner): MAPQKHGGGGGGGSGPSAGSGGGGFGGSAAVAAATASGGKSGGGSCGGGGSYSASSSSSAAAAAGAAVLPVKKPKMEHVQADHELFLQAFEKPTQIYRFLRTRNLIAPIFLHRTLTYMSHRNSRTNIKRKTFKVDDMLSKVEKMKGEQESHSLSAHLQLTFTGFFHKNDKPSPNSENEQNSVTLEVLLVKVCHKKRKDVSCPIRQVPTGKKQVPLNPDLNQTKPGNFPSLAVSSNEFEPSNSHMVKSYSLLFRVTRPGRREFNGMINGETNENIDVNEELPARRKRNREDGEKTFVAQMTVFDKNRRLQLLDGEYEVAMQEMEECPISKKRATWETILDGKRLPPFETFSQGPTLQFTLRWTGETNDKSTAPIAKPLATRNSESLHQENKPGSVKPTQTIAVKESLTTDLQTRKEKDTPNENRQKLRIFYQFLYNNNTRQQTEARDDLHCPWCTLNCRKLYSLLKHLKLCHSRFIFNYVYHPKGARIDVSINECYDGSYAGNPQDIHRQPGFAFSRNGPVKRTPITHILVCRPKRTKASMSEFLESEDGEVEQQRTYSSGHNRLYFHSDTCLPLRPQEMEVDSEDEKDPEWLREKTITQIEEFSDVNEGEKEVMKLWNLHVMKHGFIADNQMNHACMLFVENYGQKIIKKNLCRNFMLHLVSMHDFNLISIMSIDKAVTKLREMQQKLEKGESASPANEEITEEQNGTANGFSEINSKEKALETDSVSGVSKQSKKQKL
Sequence of PRC2-EZH1 (WT EZH1) (Q09028 whole entry partner): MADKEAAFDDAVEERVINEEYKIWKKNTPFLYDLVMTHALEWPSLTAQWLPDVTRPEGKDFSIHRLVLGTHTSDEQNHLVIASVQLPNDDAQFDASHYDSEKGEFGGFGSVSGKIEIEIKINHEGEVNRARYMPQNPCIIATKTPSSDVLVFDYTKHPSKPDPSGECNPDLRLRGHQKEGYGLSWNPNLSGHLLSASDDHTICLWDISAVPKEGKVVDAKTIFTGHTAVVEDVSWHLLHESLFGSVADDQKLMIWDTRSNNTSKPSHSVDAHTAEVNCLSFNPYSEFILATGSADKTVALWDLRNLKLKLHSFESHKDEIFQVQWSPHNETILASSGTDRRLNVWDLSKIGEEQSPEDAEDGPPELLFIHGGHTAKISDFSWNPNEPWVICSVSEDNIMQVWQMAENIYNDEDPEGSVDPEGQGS
Sequence of PRC2-EZH1 (WT EZH1) (Q6ZN18 whole entry partner): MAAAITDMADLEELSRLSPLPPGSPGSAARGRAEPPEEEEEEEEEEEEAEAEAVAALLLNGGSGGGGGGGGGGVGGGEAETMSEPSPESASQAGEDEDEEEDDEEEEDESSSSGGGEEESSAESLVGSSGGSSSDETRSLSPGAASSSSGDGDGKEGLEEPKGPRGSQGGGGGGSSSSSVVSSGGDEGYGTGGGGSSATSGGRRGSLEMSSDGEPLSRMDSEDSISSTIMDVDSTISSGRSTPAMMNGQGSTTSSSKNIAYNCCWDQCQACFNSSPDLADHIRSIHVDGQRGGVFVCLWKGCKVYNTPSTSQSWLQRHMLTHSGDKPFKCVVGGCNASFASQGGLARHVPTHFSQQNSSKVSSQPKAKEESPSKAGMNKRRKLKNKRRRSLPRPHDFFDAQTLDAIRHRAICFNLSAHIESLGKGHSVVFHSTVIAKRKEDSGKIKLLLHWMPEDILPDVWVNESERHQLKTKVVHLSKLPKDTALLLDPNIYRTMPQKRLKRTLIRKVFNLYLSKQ
The next assay addresses T1, PRC2-EZH2 (WT EZH2) (Homo sapiens, UniProt Q15910).
T1 construct: made in house
Briefly: EZH2 methyltransferase inhibitory activity evaluation. In kind it is biochemical. Particulars: PRC2-EZH2, biotin-H3 peptide, 3H-SAM, 2 hours.

T1 sequence (Q15910 whole entry): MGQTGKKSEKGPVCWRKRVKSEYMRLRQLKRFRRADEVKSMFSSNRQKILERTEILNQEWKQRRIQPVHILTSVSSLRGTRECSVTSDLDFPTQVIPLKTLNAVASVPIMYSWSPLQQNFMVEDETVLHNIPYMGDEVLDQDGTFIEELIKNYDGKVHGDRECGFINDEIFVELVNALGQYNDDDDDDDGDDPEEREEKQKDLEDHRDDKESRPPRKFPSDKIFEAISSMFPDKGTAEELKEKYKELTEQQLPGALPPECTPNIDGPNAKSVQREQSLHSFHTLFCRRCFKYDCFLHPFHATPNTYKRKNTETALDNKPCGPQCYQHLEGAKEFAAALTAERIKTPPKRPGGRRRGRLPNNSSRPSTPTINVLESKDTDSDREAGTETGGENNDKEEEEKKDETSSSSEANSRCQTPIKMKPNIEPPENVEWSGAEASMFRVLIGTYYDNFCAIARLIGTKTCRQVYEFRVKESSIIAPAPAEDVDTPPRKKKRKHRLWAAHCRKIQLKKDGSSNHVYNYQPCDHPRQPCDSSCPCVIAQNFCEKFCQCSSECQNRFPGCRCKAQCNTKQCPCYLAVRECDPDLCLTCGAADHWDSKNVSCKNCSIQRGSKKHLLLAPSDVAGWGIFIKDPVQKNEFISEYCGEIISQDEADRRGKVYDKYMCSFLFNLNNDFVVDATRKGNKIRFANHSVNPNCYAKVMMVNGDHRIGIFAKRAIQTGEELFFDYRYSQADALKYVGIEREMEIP
T1 sequence (O75530 whole entry partner): as the sequence (O75530 whole entry partner) above
T1 sequence (Q15022 whole entry partner): as the sequence (Q15022 whole entry partner) above
Description for PRC2-EZH1 (WT EZH1): EZH1 Methyltransferase Inhibitory Activity Evaluation
(§1) Then, the residual radioactivity was measured using TopCount NXT HTS (PerkinElmer, Inc., model C384V01).
Description for PRC2-EZH2 (WT EZH2): EZH2 Methyltransferase Inhibitory Activity Evaluation
as §1

In general, IC50 refers to the concentration needed to halve the response being measured. Turning to `Cc1cc(C)c(CNC(=O)c2cc(Br)c3c(c2C)OC(C)([C@H]2CC[C@H](N)CC2)O3)c(=O)[nH]1` (relative stereo) [Example 13, 2-(trans-4-Aminocyclohexyl)-7-bromo-N-[(4,6-dimethyl-2-oxo-1,2-dihydropyridin-3-yl)methyl]-2,4-dimethyl-1,3-benzodioxole-5-carboxamide], the IC50 in assay [1] is 5.9 nM; against PRC2-EZH1 (WT EZH1), 21 nM; on PRC2-EZH2 (WT EZH2), 16 nM.

For `COc1cc(C)[nH]c(=O)c1CNC(=O)c1cc(Br)c2c(c1C)OC(C)([C@H]1CC[C@H](N(C)C)CC1)O2` (relative stereo) [Example 16, 7-Bromo-2-[trans-4-(dimethylamino)cyclohexyl]-N-[(4-methoxy-6-methyl-2-oxo-1,2-dihydropyridin-3-yl)methyl]-2,4-dimethyl-1,3-benzodioxole-5-carboxamide], the IC50 in assay [1] was found to be 1.4 nM; against PRC2-EZH1 (WT EZH1), 9.4 nM; on PRC2-EZH2 (WT EZH2), 12 nM.

In the case of `CCc1cc(C)[nH]c(=O)c1CNC(=O)c1cc(Br)c2c(c1C)OC(C)([C@H]1CC[C@H](N(C)C)CC1)O2` (relative stereo) [Example 17, 7-Bromo-2-[trans-4-(dimethylamino)cyclohexyl]-N-[(4-ethyl-6-methyl-2-oxo-1,2-dihydropyridin-3-yl)methyl]-2,4-dimethyl-1,3-benzodioxole-5-carboxamide], the values for the IC50 (in assay [1]; on PRC2-EZH1 (WT EZH1); on PRC2-EZH2 (WT EZH2)) were 1.2 nM, 17 nM and 23 nM, respectively.

Consider `CCCc1cc(C)[nH]c(=O)c1CNC(=O)c1cc(Br)c2c(c1C)OC(C)([C@H]1CC[C@H](N(C)C)CC1)O2` (relative stereo) [Example 18, 7-Bromo-2-[trans-4-(dimethylamino)cyclohexyl]-2,4-dimethyl-N-[(6-methyl-2-oxo-4-propyl-1,2-dihydropyridin-3-yl)methyl]-1,3-benzodioxole-5-carboxamide], for which the IC50 in assay [1] was 5.8 nM; on PRC2-EZH1 (WT EZH1), 19 nM; against PRC2-EZH2 (WT EZH2), 23 nM.

On to `CCN[C@H]1CC[C@H](C2(C)Oc3c(Br)cc(C(=O)NCc4c(C)cc(C)[nH]c4=O)c(C)c3O2)CC1` (relative stereo) [Example 19, 7-Bromo-N-[(4,6-dimethyl-2-oxo-1,2-dihydropyridin-3-yl)methyl]-2-[trans-4-(ethylamino)cyclohexyl]-2,4-dimethyl-1,3-benzodioxole-5-carboxamide], for which the concentration for half-maximal inhibition (IC50) in assay [1] is 11 nM; against PRC2-EZH1 (WT EZH1), 28 nM; on PRC2-EZH2 (WT EZH2) it was 25 nM.

For `CCN(C)[C@H]1CC[C@H](C2(C)Oc3c(Br)cc(C(=O)NCc4c(C)cc(C)[nH]c4=O)c(C)c3O2)CC1` (relative stereo) [Example 20, 7-Bromo-N-[(4,6-dimethyl-2-oxo-1,2-dihydropyridin-3-yl)methyl]-2-[trans-4-[N-ethyl(N-methyl)amino]cyclohexyl]-2,4-dimethyl-1,3-benzodioxole-5-carboxamide], the IC50 in assay [1] was found to be 2.8 nM; on PRC2-EZH1 (WT EZH1), 23 nM; on PRC2-EZH2 (WT EZH2), 17 nM.

Turning to `CCN(CC)[C@H]1CC[C@H](C2(C)Oc3c(Br)cc(C(=O)NCc4c(C)cc(C)[nH]c4=O)c(C)c3O2)CC1` (relative stereo) [Example 21, 7-Bromo-2-[trans-4-(diethylamino)cyclohexyl]-N-[(4,6-dimethyl-2-oxo-1,2-dihydropyridin-3-yl)methyl]-2,4-dimethyl-1,3-benzodioxole-5-carboxamide], the IC50 in assay [1] was found to be 10 nM; at PRC2-EZH1 (WT EZH1), 60 nM; on PRC2-EZH2 (WT EZH2), 18 nM.

With `Cc1cc(C)c(CNC(=O)c2ccc3c(c2C)OC(C)([C@H]2CC[C@H](N(C)C)CC2)O3)c(=O)[nH]1` (relative stereo) [Example 23, 2-[trans-4-(Dimethylamino)cyclohexyl]-N-[(4,6-dimethyl-2-oxo-1,2-dihydropyridin-3-yl)methyl]-2,4-dimethyl-1,3-benzodioxole-5-carboxamide], the IC50 came to 2.8 nM in assay [1], 4.1 nM against PRC2-EZH1 (WT EZH1) and 5.6 nM against PRC2-EZH2 (WT EZH2).

As for `Cc1cc(C)c(CNC(=O)c2cc(Br)c3c(c2C)OC(C)([C@H]2CC[C@H](CN(C)C)CC2)O3)c(=O)[nH]1` (relative stereo) [Example 24, 7-Bromo-2-[trans-4-[(dimethylamino)methyl]cyclohexyl]-N-[(4,6-dimethyl-2-oxo-1,2-dihydropyridin-3-yl)methyl]-2,4-dimethyl-1,3-benzodioxole-5-carboxamide], the 50% inhibitory concentration (IC50) in assay [1] came to 19 nM; against PRC2-EZH1 (WT EZH1) it was 140 nM; against PRC2-EZH2 (WT EZH2), 12 nM.

Take `Cc1cc(C)c(CNC(=O)c2cc(Br)c3c(c2C)OC(C)(C[C@H]2CC[C@@H](N(C)C)CC2)O3)c(=O)[nH]1` (relative stereo) [Example 27, 7-Bromo-2-[[cis-4-(dimethylamino)cyclohexyl]methyl]-N-[(4,6-dimethyl-2-oxo-1,2-dihydropyridin-3-yl)methyl]-2,4-dimethyl-1,3-benzodioxole-5-carboxamide]: the IC50 was found to be 3.8 nM in assay [1], 23 nM against PRC2-EZH1 (WT EZH1) and 22 nM against PRC2-EZH2 (WT EZH2).

For `Cc1cc(C)c(CNC(=O)c2cc(Br)c3c(c2C)OC(C)(C[C@H]2CC[C@H](N(C)C)CC2)O3)c(=O)[nH]1` (relative stereo) [Example 28, 7-Bromo-2-[[trans-4-(dimethylamino)cyclohexyl]methyl]-N-[(4,6-dimethyl-2-oxo-1,2-dihydropyridin-3-yl)methyl]-2,4-dimethyl-1,3-benzodioxole-5-carboxamide], the values for the concentration for half-maximal inhibition (IC50) (in assay [1]; against PRC2-EZH1 (WT EZH1); against PRC2-EZH2 (WT EZH2)) were 14 nM, 78 nM and 20 nM, respectively.

With `CN[C@H]1CC[C@H](C2(C)Oc3c(Cl)cc(C(=O)NCc4c(C)cc(C)[nH]c4=O)c(C)c3O2)CC1` (relative stereo) [Example 32, 7-Chloro-N-[(4,6-dimethyl-2-oxo-1,2-dihydropyridin-3-yl)methyl]-2,4-dimethyl-2-[trans-4-(methylamino)cyclohexyl]-1,3-benzodioxole-5-carboxamide], the IC50 in assay [1] amounted to 4.8 nM; on PRC2-EZH1 (WT EZH1), 30 nM; against PRC2-EZH2 (WT EZH2), 17 nM.

Turning to `Cc1cc(C)c(CNC(=O)c2cc(Cl)c3c(c2C)OC(C)([C@H]2CC[C@H](N(C)C=O)CC2)O3)c(=O)[nH]1` (relative stereo) [Example 33, 7-Chloro-N-[(4,6-dimethyl-2-oxo-1,2-dihydropyridin-3-yl)methyl]-2-[trans-4-[formyl(methyl)amino]cyclohexyl]-2,4-dimethyl-1,3-benzodioxole-5-carboxamide], the IC50 in assay [1] worked out at 14 nM; on PRC2-EZH1 (WT EZH1) it was 260 nM; against PRC2-EZH2 (WT EZH2), 28 nM.

On to `COc1cc(C)[nH]c(=O)c1CNC(=O)c1cc(Cl)c2c(c1C)OC(C)([C@H]1CC[C@H](N(C)C)CC1)O2` (relative stereo) [Example 36, 7-Chloro-2-[trans-4-(dimethylamino)cyclohexyl]-N-[(4-methoxy-6-methyl-2-oxo-1,2-dihydropyridin-3-yl)methyl]-2,4-dimethyl-1,3-benzodioxole-5-carboxamide], for which the values for the IC50 (in assay [1]; against PRC2-EZH1 (WT EZH1); on PRC2-EZH2 (WT EZH2)) were 1.6 nM, 13 nM and 13 nM, respectively.

On to `CCc1cc(C)[nH]c(=O)c1CNC(=O)c1cc(Cl)c2c(c1C)OC(C)([C@H]1CC[C@H](N(C)C)CC1)O2` (relative stereo) [Example 37, 7-Chloro-2-[trans-4-(dimethylamino)cyclohexyl]-N-[(4-ethyl-6-methyl-2-oxo-1,2-dihydropyridin-3-yl)methyl]-2,4-dimethyl-1,3-benzodioxole-5-carboxamide], for which the IC50 turned out to be 1.6 nM in assay [1], 28 nM against PRC2-EZH1 (WT EZH1) and 19 nM against PRC2-EZH2 (WT EZH2).

Regarding `Cc1cc(C)c(CNC(=O)c2cc(Br)c3c(c2C)OC(C)([C@H]2CC[C@@H](N(C)C)CC2)O3)c(=O)[nH]1` (relative stereo) [Example 41, 7-Bromo-2-[cis-4-(dimethylamino)cyclohexyl]-N-[(4,6-dimethyl-2-oxo-1,2-dihydropyridin-3-yl)methyl]-2,4-dimethyl-1,3-benzodioxole-5-carboxamide], the IC50 in assay [1] turned out to be 11 nM.

For the molecule `Cc1cc(C)c(CNC(=O)c2cc(Br)c3c(c2C)OC(C)(C2CCOCC2)O3)c(=O)[nH]1` (stereo not drawn) [Example 2, 7-Bromo-N-[(4,6-dimethyl-2-oxo-1,2-dihydropyridin-3-yl)methyl]-2,4-dimethyl-2-(tetrahydropyran-4-yl)-1,3-benzodioxole-5-carboxamide], the IC50 worked out at 9 nM in assay [1] and 22 nM against PRC2-EZH2 (WT EZH2).

Turning to `CCCN1CCC([C@@]2(C)Oc3c(Br)cc(C(=O)NCc4c(C)cc(C)[nH]c4=O)c(C)c3O2)CC1` [Example 9, (2R)-7-Bromo-N-[(4,6-dimethyl-2-oxo-1,2-dihydropyridin-3-yl)methyl]-2,4-dimethyl-2-(1-propyl-4-piperidyl)-1,3-benzodioxole-5-carboxamide], the results for the IC50 (in assay [1]; against PRC2-EZH2 (WT EZH2)) were 13 nM and 11 nM, respectively.

`CCS(=O)(=O)N1CCC([C@@]2(C)Oc3c(Br)cc(C(=O)NCc4c(C)cc(C)[nH]c4=O)c(C)c3O2)CC1` [Example 11, (2R)-7-Bromo-N-[(4,6-dimethyl-2-oxo-1,2-dihydropyridin-3-yl)methyl]-2-(1-ethylsulfonyl-4-piperidyl)-2,4-dimethyl-1,3-benzodioxole-5-carboxamide]: the IC50 was 3.7 nM in assay [1] and 9.1 nM at PRC2-EZH2 (WT EZH2).

As to `Cc1cc(C)c(CNC(=O)c2cc(Br)c3c(c2C)OC(C)([C@@H]2CC[C@@H](N(C)C)CO2)O3)c(=O)[nH]1` (stereo partly drawn) [Example 22, 7-Bromo-2-[(2S,5R)-5-(dimethylamino)tetrahydropyran-2-yl]-N-[(4,6-dimethyl-2-oxo-1,2-dihydropyridin-3-yl)methyl]-2,4-dimethyl-1,3-benzodioxole-5-carboxamide], the IC50 worked out at 1.6 nM in assay [1] and 14 nM against PRC2-EZH2 (WT EZH2).
